Read-outs that look alike come from different tables or passages of the source.
Tested on: T lymphocytes (normal mouse spleen cells) stimulated with ConA
Assay: Mouse Spleen Cell ConA Blastogenesis Assay
Type: cell-based, mouse (C57Bl/6)
Conditions: for inhibition at 1 µg/mL / inhibition at 2.5 µg/mL / inhibition at 10 µg/mL / inhibition at 25 µg/mL / inhibition at 100 µg/mL / inhibition at 0.01 µg/mL / inhibition at 0.1 µg/mL / inhibition at 0.001 µg/mL: Mus musculus, T-lymphocyte; for strong antiproliferative effect on ConA blastogenic response: concentration not given
[1] = ConA 1 ug/ml, compound 1 ug/ml, read-out: % change from control, ConA blastogenic response
[2] = ConA 1 ug/ml, compound 2.5 ug/ml, read-out: % change from control, ConA blastogenic response
[3] = ConA 1 ug/ml, compound 10 ug/ml, read-out: % change from control, ConA blastogenic response
[4] = ConA 1 ug/ml, compound 25 ug/ml, read-out: % change from control, ConA blastogenic response
[5] = ConA 1 ug/ml, compound 100 ug/ml, read-out: % change from control, ConA blastogenic response
[6] = ConA 4 ug/ml, compound 1 ug/ml, read-out: % change from control, ConA blastogenic response
[7] = ConA 4 ug/ml, compound 2.5 ug/ml, read-out: % change from control, ConA blastogenic response
[8] = ConA 4 ug/ml, compound 10 ug/ml, read-out: % change from control, ConA blastogenic response
[9] = ConA 4 ug/ml, compound 25 ug/ml, read-out: % change from control, ConA blastogenic response
[10] = ConA 4 ug/ml, compound 100 ug/ml, read-out: % change from control, ConA blastogenic response
[11] = ConA 1 ug/ml, compound 0.01 ug/ml, read-out: % change from control, ConA blastogenic response
[12] = ConA 1 ug/ml, compound 0.1 ug/ml, read-out: % change from control, ConA blastogenic response
[13] = ConA 4 ug/ml, compound 0.01 ug/ml, read-out: % change from control, ConA blastogenic response
[14] = ConA 4 ug/ml, compound 0.1 ug/ml, read-out: % change from control, ConA blastogenic response

| Compound | inhibition at 1 µg/mL [1] [%] | inhibition at 2.5 µg/mL [2] [%] | inhibition at 10 µg/mL [3] [%] | inhibition at 25 µg/mL [4] [%] | inhibition at 100 µg/mL [5] [%] | inhibition at 1 µg/mL [6] [%] | inhibition at 2.5 µg/mL [7] [%] | inhibition at 10 µg/mL [8] [%] | inhibition at 25 µg/mL [9] [%] | inhibition at 100 µg/mL [10] [%] | strong antiproliferative effect on ConA blastogenic response | inhibition at 0.01 µg/mL [11] [%] | inhibition at 0.1 µg/mL [12] [%] | inhibition at 0.01 µg/mL [13] [%] | inhibition at 0.1 µg/mL [14] [%] | also measured |
| --- | --- | --- | --- | --- | --- | --- | --- | --- | --- | --- | --- | --- | --- | --- | --- | --- |
| CN1CCCC1CCNC[C@H]1OC(C)(C)O[C@@H]2[C@H]3OC(C)(C)O[C@H]3O[C@@H]21 (some centres unmarked) [IIIi] | -25 | -16 | -10 | 23 | 91 | 9 | 14 | 9 | 50 | 95 | greater than -50 % of control |  |  |  |  |  |
| CC1(C)OC2OC(C(O)COCCCc3ccccc3)C(O)C2O1 [IIIe, 1,2-O-Isopropylidene-6-O-3'-(phenylpropyl)-α-D-glucofuranose] | 78 | 94 | 98 | 99 | 99 | 76 | 91 | 97 | 99 | 100 | greater than -50 % of control |  |  |  |  |  |
| CCCCC/C=C/COC[C@H]1O[C@@]2(OC)COC(C)(C)O[C@H]2[C@@H]1OC/C=C/CCCCC [Ie, methyl 1,3-O-isopropylidene-4,6-di-O-(trans,2-octenyl)-α-D-fructofuranoside] | 34 | 72 | 91 | 99 | 100 | 59 | 79 | 92 | 99 | 100 |  | 22 | 18 | 4 | 9 | inhibition at 0.01 µg/mL (ConA 1 ug/ml, 0.01 ug/ml, read-out: % Change from Control (Table II)): 2%; inhibition at 0.01 µg/mL (ConA 4 ug/ml, 0.01 ug/ml, read-out: % Change from Control (Table II)): 8% |
| CCCCCCCOC[C@H]1O[C@@]2(OC)COC(C)(C)O[C@H]2[C@@H]1O [Ia, methyl 1,3-O-isopropylidene-6-O-heptyl-α-D-fructofuranoside] | -1 | 15 | 52 | 97 | 99 | 9 | 25 | 41 | 84 | 93 |  | 19 | -28 | 14 | -5 | effect on ConA T lymphocyte proliferation in words: dose-dependent, significant, inhibitory effect; Blastogenic response of normal spleen cells to Con-A (ConA 1 ug/ml, compound 0.001 ug/ml): 52.6 ± 3.8 × 10^-3 cpm; Blastogenic response of normal spleen cells to Con-A (ConA 1 ug/ml, compound 0.01 ug/ml): 45.1 ± 4.9 × 10^-3 cpm; Blastogenic response of normal spleen cells to Con-A (ConA 1 ug/ml, compound 0.1 ug/ml): 71.1 ± 4.9 × 10^-3 cpm; Blastogenic response of normal spleen cells to Con-A (ConA 1 ug/ml, compound 1 ug/ml): 55.7 ± 8.4 × 10^-3 cpm; Blastogenic response of normal spleen cells to Con-A (ConA 1 ug/ml, compound 2.5 ug/ml): 47.2 ± 7.0 × 10^-3 cpm; Blastogenic response of normal spleen cells to Con-A (ConA 1 ug/ml, compound 10 ug/ml): 26.5 ± 8.8 × 10^-3 cpm; Blastogenic response of normal spleen cells to Con-A (ConA 1 ug/ml, compound 25 ug/ml): 1.5 ± 0.4 × 10^-3 cpm; Blastogenic response of normal spleen cells to Con-A (ConA 1 ug/ml, compound 100 ug/ml): 0.6 ± 0.1 × 10^-3 cpm; Blastogenic response of normal spleen cells to Con-A (ConA 4 ug/ml, compound 0.001 ug/ml): 68.7 ± 5.0 × 10^-3 cpm; Blastogenic response of normal spleen cells to Con-A (ConA 4 ug/ml, compound 0.01 ug/ml): 72.8 ± 0.8 × 10^-3 cpm; Blastogenic response of normal spleen cells to Con-A (ConA 4 ug/ml, compound 0.1 ug/ml): 88.8 ± 2.4 × 10^-3 cpm; Blastogenic response of normal spleen cells to Con-A (ConA 4 ug/ml, compound 1 ug/ml): 77.0 ± 4.2 × 10^-3 cpm; Blastogenic response of normal spleen cells to Con-A (ConA 4 ug/ml, compound 2.5 ug/ml): 63.8 ± 2.3 × 10^-3 cpm; Blastogenic response of normal spleen cells to Con-A (ConA 4 ug/ml, compound 10 ug/ml): 50.2 ± 3.4 × 10^-3 cpm; Blastogenic response of normal spleen cells to Con-A (ConA 4 ug/ml, compound 25 ug/ml): 13.7 ± 2.0 × 10^-3 cpm; Blastogenic response of normal spleen cells to Con-A (ConA 4 ug/ml, compound 100 ug/ml): 6.3 ± 2.2 × 10^-3 cpm; inhibition at 0.001 µg/mL (ConA 1 ug/ml, compound 0.001 ug/ml, read-out: % change from control, ConA blastogenic response): 5%; inhibition at 0.001 µg/mL (ConA 4 ug/ml, compound 0.001 ug/ml, read-out: % change from control, ConA blastogenic response): 19% |
